Measurements as given in patent publication US20080045514A1 (Cytovia, Inc., priority 2006, published 2008).
pEC50: −log10 of the molar value.

Tests used:
Type in all cases: cell-based
[1] = tested on: human breast cancer cell line T-47D; assay: Caspase cascade activation (EC50), T-47D; conditions: Homo sapiens; T47D cells; caspase cascade activation; read-out: caspase potency (EC50) T47D
How it was run: (§1)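 Cells in ATCC medium plus 10% FCS, seeded at 0.65×10^6 cells/mL, incubated with compound at 0.016 to 10 μM final, 48 h, 37 °C. Lysis-substrate buffer (14 μM DEVD-R110, 20 mM DTT, pH 7.2, lysolecithin) added; fluorescence read after 3 h at room temperature.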

[2] = tested on: human hepatocellular carcinoma cell line SNU398; assay: Caspase cascade activation (EC50), SNU398; conditions: Homo sapiens, SNU-398; SNU398 cells; caspase cascade activation; read-out: caspase potency (EC50) SNU398
How it was run: as §1

[3] = tested on: human colon carcinoma cell line HCT116; assay: Caspase cascade activation (EC50), HCT116; conditions: Homo sapiens, HCT-116; HCT116 cells; caspase cascade activation; read-out: caspase potency (EC50) HCT116
How it was run: as §1

[4] = tested on: human cancer cell line H1299; assay: Caspase cascade activation (EC50), H1299; conditions: NCI-H1299, H1299 cells, read-out: caspase potency (EC50) H1299
How it was run: as §1

[5] = tested on: human Burkitt's lymphoma cell line Namalwa; assay: Caspase cascade activation (EC50), Namalwa; conditions: Homo sapiens, Burkitts lymphoma cell; Namalwa cells; caspase cascade activation; read-out: caspase potency (EC50) Namalwa
How it was run: as §1

[6] = tested on: human lymphoma cell line Raji; assay: Caspase cascade activation (EC50), Raji; conditions: Homo sapiens, RAJI cells, read-out: caspase potency (EC50) RAJI
How it was run: as §1

[7] = tested on: human B cell lymphoblastoid cell line Ramos; assay: Caspase cascade activation (EC50), Ramos; conditions: Homo sapiens, RAMOS cells, read-out: caspase potency (EC50) RAMOS
How it was run: as §1

[8] = tested on: human breast cancer cell line T-47D; assay: Inhibition of cell proliferation (GI50), T47D; conditions: Homo sapiens; T47D cells, 48 h, CellTiter-Glo
How it was run: (§2)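 CellTiter-Glo luminescence readout after 48 h compound exposure (1 nM–10 μM final), 37 °C, 5% CO2; seeding 4.4×10^4 cells/mL in RPMI-1640/DMSO. Untreated wells give maximal growth; wells read at 0.5 h give starting cell number; GI50 = 50% of net growth over baseline.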

[9] = tested on: human hepatocellular carcinoma cell line SNU398; assay: Inhibition of cell proliferation (GI50), SNU398; conditions: Homo sapiens; SNU 398 cells, 48 h, CellTiter-Glo
How it was run: as §2

[10] = tested on: human colon carcinoma cell line HCT116; assay: Inhibition of cell proliferation (GI50), HCT116; conditions: Homo sapiens; HCT 116 cells, 48 h, CellTiter-Glo
How it was run: as §2

[11] = tested on: human lung cancer cell line H1299; assay: Inhibition of cell proliferation (GI50), H1299; conditions: NCI-H1299, H1299 cells, 48 h, CellTiter-Glo
Procedure: (§3) Human breast cancer cell lines T-47D, human hepatocellular carcinoma cell line SNU398, human colon carcinoma cell line HCT116, human lung cancer cell line H1299, human leukemia cell line K562, human lymphoma cell line Raji, human B cell lymphoblastoid cell line Ramos, and human Burkitt's lymphoma cell line Namalwa were grown and harvested as in Example 100. An aliquot of […] of cells (4.4×10^4 cells/mL) was added to a well of a 96-well microtiter plate containing 5 μL of a 10% DMSO in RPMI-1640 media solution containing 10 nM to 100 μM of 3-(2-chlorophenyl)-6-(3,4-methylenedioxyphenyl)-7H-[1,2,4]triazolo[3,4-b][1,3,4]thiadiazine (1 nM to 10 μM final). An aliquot of 45 μL of cells was added to a well of a 96-well microtiter plate containing 5 μL of a 10% DMSO in RPMI-1640 media solution without compound as the control sample for maximal cell proliferation (LMax). The samples were mixed by agitation and then incubated at 37° C. for 48 h in a 5% CO2-95% humidity incubator. After incubation, the samples were removed from the incubator and 25 μL of CellTiter-Glo™ reagent (Promega) was added. The samples were mixed by agitation and incubated at room temperature for 10-15 min. Plates were then read using a luminescent plate reader (Model SPECTRAfluor Plus, Tecan) to give Ltest values.
(§4) The samples were mixed by agitation and then incubated at 37° C. for 0.5 h in a 5% CO2-95% humidity incubator. After incubation, the samples were removed from the incubator and 25 μL of CellTiter-Glo™ reagent (Promega) was added. The samples were mixed by agitation and incubated at […] 10-15 min at room temperature in a 5% CO2-95% humidity incubator. Fluorescence was read as above, (LStart) defining luminescence for initial cell number used as baseline in GI50 determinations.
(§5) Calculation: GI50 (dose for 50% inhibition of cell proliferation) is the concentration where [(Ltest−LStart)/(LMax−LStart)]=0.5.

[12] = tested on: human leukemia cell line K562; assay: Inhibition of cell proliferation (GI50), K562; conditions: Homo sapiens; K562 cells, 48 h, CellTiter-Glo
How it was run: as §2

[13] = tested on: human lymphoma cell line Raji; assay: Inhibition of cell proliferation (GI50), Raji; conditions: Homo sapiens; Raji cells, 48 h, CellTiter-Glo
How it was run: as §2

[14] = tested on: human B cell lymphoblastoid cell line Ramos; assay: Inhibition of cell proliferation (GI50), Ramos; conditions: Homo sapiens; Ramos cells, 48 h, CellTiter-Glo
How it was run: as §2

[15] = tested on: human Burkitt's lymphoma cell line Namalwa; assay: Inhibition of cell proliferation (GI50), Namalwa; conditions: Homo sapiens, Burkitts lymphoma cell; Namalwa cells, 48 h, CellTiter-Glo
How it was run: as §2

[16] = tested on: human sarcoma cell line MES-SA; assay: Inhibition of cell proliferation (GI50), MES-SA; conditions: MES-SA cells
Procedure: as §3, §4, §5
(§6) Several compounds were tested in human sarcoma cell line MES-SA and multi-drug resistant (MDR) human sarcoma cell line MES-SA/ADR, murine leukemia cell line P388 and multi-drug resistant (MDR) murine leukemia cell line P388/ADR, and the data are summarized in Table III.

[17] = tested on: multi-drug resistant (MDR) human sarcoma cell line MES-SA/ADR; assay: Inhibition of cell proliferation (GI50), MES-SA/ADR; conditions: MES-SA/ADR multi-drug resistant cells
Procedure: as §3, §4, §5, §6

[18] = tested on: murine leukemia cell line P388; assay: Inhibition of cell proliferation (GI50), P388; conditions: Mus musculus; P388 cells
Procedure: as §3, §4, §5, §6

[19] = tested on: multi-drug resistant (MDR) murine leukemia cell line P388/ADR; assay: Inhibition of cell proliferation (GI50), P388/ADR; conditions: Mus musculus; P388/ADR multi-drug resistant cells
Procedure: as §3, §4, §5, §6

pEC50 [1] | pEC50 [2] | pEC50 [3] | pEC50 [4] | pEC50 [5] | pEC50 [6] | pEC50 [7] | GI50 [8] | GI50 [9] | GI50 [10] | GI50 [11] | GI50 [12] | GI50 [13] | GI50 [14] | GI50 [15] | GI50 [16] | GI50 [17] | GI50 [18] | GI50 [19] | Structure (SMILES)
7.21 | 7.55 | 7.40 | 7.17 | 7.51 | 7.72 | 7.89 | 22 nM | 12 nM | 25 nM | 166 nM | 18 nM | 41 nM | 16 nM | 13 nM | 17 nM | 25 nM | 7 nM | 10 nM | COc1cc(-c2nnc3n2N=C(c2ccc4c(c2)OCO4)CS3)cc(OC)c1OC [Example M1, 3-(3,4,5-Trimethoxyphenyl)-6-(3,4-methylenedioxyphenyl)-7H-[1,2,4]triazolo[3,4-b][1,3,4]thiadiazine]
6.28 | 7.17 | 6.92 | 6.17 | 7.18 | 7.08 | 7.17 | 400 nM | 55 nM | 157 nM | – | 32 nM | 62 nM | 14 nM | 119 nM | 418 nM | 196 nM | 57 nM | 77 nM | COc1ccc(C2=Nn3c(nnc3-c3cccc(OC)c3)SC2)cc1 [Example X, 3-(3-methoxyphenyl)-6-(4-methoxyphenyl)-7H-[1,2,4]triazolo[3,4-b][1,3,4]thiadiazine]
